By IC50 is commonly meant the concentration at which inhibition is half-maximal. What is called melting point is the temperature, or range, at which the solid turns liquid. One may read the EC50 as the midpoint of the concentration-response curve.

Here are results for six compounds from US7772183B2 (Bristol-Myers Squibb Company, priority 2005, dated 2010).

In data set [1] the target is T1, HCV NS3/4A protease complex, BMS strain (UniProt P27958, species not given/STRAIN_BMS).
T1 construct: said of H77 and J4L6S; fused on or other part: A three-lysine solubilising tail at the C-terminus of NS4A and a His tag (pET21b, Ni-NTA purification)
T1 sequence (P27958 1027-1657, change not shown, one chain of several): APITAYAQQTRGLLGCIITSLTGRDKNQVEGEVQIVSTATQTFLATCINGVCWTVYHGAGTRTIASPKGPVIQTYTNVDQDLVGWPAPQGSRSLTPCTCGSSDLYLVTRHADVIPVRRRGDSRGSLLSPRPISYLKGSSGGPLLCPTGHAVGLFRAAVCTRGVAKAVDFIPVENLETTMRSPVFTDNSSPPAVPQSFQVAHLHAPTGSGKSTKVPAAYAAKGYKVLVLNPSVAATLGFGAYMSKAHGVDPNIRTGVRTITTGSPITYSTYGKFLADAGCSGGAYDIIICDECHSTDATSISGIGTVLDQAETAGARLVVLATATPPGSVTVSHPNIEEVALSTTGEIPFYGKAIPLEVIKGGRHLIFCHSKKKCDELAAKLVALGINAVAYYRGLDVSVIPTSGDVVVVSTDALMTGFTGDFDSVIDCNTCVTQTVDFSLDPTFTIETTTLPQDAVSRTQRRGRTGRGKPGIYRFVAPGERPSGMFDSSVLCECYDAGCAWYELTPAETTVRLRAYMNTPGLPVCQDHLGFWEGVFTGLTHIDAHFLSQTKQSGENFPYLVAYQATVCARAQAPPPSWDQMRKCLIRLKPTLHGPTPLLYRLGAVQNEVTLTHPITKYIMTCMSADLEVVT
Briefly: FRET peptide assay to monitor HCV NS3/4A proteolytic activity (BMS strain). Type of data set: biochemical, Hepatitis C virus (genotype 1a). The note with it: NS3/4A BMS strain; read-out: IC50 Range. The gist of the method:
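Recombinant NS3/4A complexes (aa 1027–1711) from H77 (1a) and J4L6S (1b) carried a three-lysine tail, C1711G and C1454S. They were expressed in E. coli BL21(DE3) (0.5 mM IPTG, 22 h, 20 °C), then purified by Ni-NTA and Superdex-S200 to >90% purity. The BMS strain was a genotype 1a clone from patient serum.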

Data set [2] relates to HCV replicon in HUH-7 cells. Briefly: HCV replicon FRET assay. Type of data set: cell-based, Hepatitis C virus (strain 1b). To be noted: Hepatitis C virus, Huh-7; HCV replicon, for compounds tested; read-out: EC50 Range. The gist of the method:
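HUH-7 cells stably carrying a genotype 1b subgenomic HCV replicon (NS3–NS5B) treated with compound for 4 days at 37° C, 0.5% DMSO final. Cytotoxicity (CC50) read by alamar Blue; cells then lysed with 10 μM FRET HCV protease peptide substrate and kinetically read (340/490 nm) for EC50.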
(In general: In antiviral work, replicon cells carry a viral genome segment that copies itself.)

Regarding `CC(C)(C)OC(=O)N[C@H]1CCCCC/C=C\[C@@H]2C[C@@]2(C(=O)NS(=O)(=O)C2CC2)NC(=O)[C@@H]2C[C@@H](OC(=O)c3cccnc3)CN2C1=O` [Compound 30, 18-(nicotinoyloxy)-14-tert-butoxycarbonylamino-4-cyclopropylsulfonylaminocarbonyl-2,15-dioxo-3,16-diazatricyclo-[14.3.0.0^4,6]-nonadec-7-ene], the melting point was 157 to 159 °C. Besides, the IC50 in data set [1] was less than 100 nM. Also, the EC50 in data set [2] was greater than 1000 nM.

Compound `CC(C)(C)OC(=O)N[C@H]1CCCCC/C=C\[C@@H]2C[C@@]2(C(=O)NS(=O)(=O)C2CC2)NC(=O)[C@@H]2C[C@@H](OC(=O)c3ccc(-n4cccn4)cc3)CN2C1=O` [Compound 32, 18-(4-[1-pyrazolyl]benzoyloxy)-14-tert-butoxycarbonylamino-4-cyclopropylsulfonylaminocarbonyl-2,15-dioxo-3,16-diazatricyclo-[14.3.0.0^4,6]-nonadec-7-ene] had a melting point of 167 to 169 °C. Also, the IC50 in data set [1] is less than 100 nM. Besides, the EC50 in data set [2] was less than 100 nM.

Compound `CC(C)(C)OC(=O)N[C@H]1CCCCC/C=C\[C@@H]2C[C@@]2(C(=O)NS(=O)(=O)C2CC2)NC(=O)[C@@H]2C[C@@H](OC(=O)c3cnccn3)CN2C1=O` [Compound 27, 18-(pyrazinecarbonyloxy)-14-tert-butoxycarbonylamino-4-cyclopropylsulfonylaminocarbonyl-2,15-dioxo-3,16-diazatricyclo-[14.3.0.0^4,6]-nonadec-7-ene] came in with a melting point of 150 to 152 °C. Besides, the concentration for half-maximal inhibition (IC50) in data set [1] is less than 100 nM. Further, in data set [2], the EC50 was greater than 1000 nM.

On to `CC(C)(C)OC(=O)N[C@H]1CCCOC/C=C\[C@@H]2C[C@@]2(C(=O)NS(=O)(=O)C2CC2)NC(=O)[C@@H]2C[C@@H](OC(=O)c3ccccc3)CN2C1=O` [Compound 1, 18-benzoyloxy-14-tert-butoxycarbonylamino-4-cyclopropylsulfonylaminocarbonyl-2,15-dioxo-3,16-diaza-10-oxatricyclo[14.3.0.0^4,6]nonadec-7-ene], for which the melting point lay in the range of 153 to 155 °C. Moreover, the concentration for half-maximal inhibition (IC50) in data set [1] was less than 100 nM. In addition, the concentration for a half-maximal effect (EC50) in data set [2] fell in the range of 100 to 1000 nM.

As to `CC(C)(C)OC(=O)N[C@H]1CCCCC/C=C\[C@@H]2C[C@@]2(C(=O)NS(=O)(=O)C2CC2)NC(=O)[C@@H]2C[C@@H](OC(=O)c3ccc4c(c3)OCCO4)CN2C1=O` [Compound 25, 18-(2,3-dihydro-1,4-benzodioxine-6-carbonyloxy)-14-tert-butoxycarbonylamino-4-cyclopropylsulfonylaminocarbonyl-2,15-dioxo-3,16-diazatricyclo-[14.3.0.0^4,6]-nonadec-7-ene], the melting point lay in the range of 199 to 201 °C. Besides, the IC50 in data set [1] is less than 100 nM. In addition, the half-maximal effective concentration (EC50) in data set [2] is less than 100 nM.

Turning to `CC(C)(C)OC(=O)N[C@H]1CCCCC/C=C\[C@@H]2C[C@@]2(C(=O)NS(=O)(=O)C2CC2)NC(=O)[C@@H]2C[C@@H](OC(=O)c3ccccn3)CN2C1=O` [Compound 28, 18-(picolinoyloxy)-14-tert-butoxycarbonylamino-4-cyclopropylsulfonylaminocarbonyl-2,15-dioxo-3,16-diazatricyclo-[14.3.0.0^4,6]-nonadec-7-ene], the melting point lay in the range of 164 to 166 °C. Besides, the half-maximal inhibitory concentration (IC50) in data set [1] was less than 100 nM. Further, the 50% effective concentration (EC50) in data set [2] was greater than 1000 nM.
